Source: patent publication US11655254B2, “Substituted piperazines as BTK inhibitors” (HUTCHISON MEDIPHARMA LIMITED, priority 2020, dated 2023)

Experiments:
[1] = tested on: B cell activation in rat whole blood; test: Determination of B cell activity in whole blood of rats (anti-rat IgD induced); format: cell-based; conditions: anti-rat immunoglobulin D, 18 hours, flow cytometry B220/CD86, read-out: IC50 value, inhibiting B cell activation in rat whole blood
Experimental: In the determination of the compound activity, the collected peripheral whole blood of rat was added to a 96 well plate at 80 μL/well and cultured in a 5% CO2, 37° C. cell incubator. […]
On the second day, the 96-well plates were taken out and the flow cytometry antibody mixture (the final concentration of anti-rat B220PE antibody was 1 μg/mL and the final concentration of anti-rat CD86 FITC antibody was 1 μg/mL) diluted with PBS was added to each well of plate, which were incubated for 30 minutes in the dark, and then 50 […] of blood from each well was pipetted to the freshly prepared 500 μL of lysis buffer to lyse red blood cells. The plates were shaken for 20 minutes, centrifuged to remove the supernatant, then washed, fixed, and detected on a flow cytometer.
The B cell activation in the sample was determined by flow dyeing method. […]
The inhibition ratio is calculated as follows: inhibition ratio (%)=100%−{(treating well for the test compound−negative control treating well)/(control treating well for anti-rat immunoglobulin D−negative control treating well)}×100%, wherein, […]

[2] = tested on: ITP mice (anti-mouse CD41 antibodies); test: Idiopathic thrombocytopenic purpura induced by anti-CD41 antibody in mice; format: in vivo; conditions: 8 hours after modeling, single oral dose
Experimental: Male C57BL/6 mice were purchased from Shanghai Lingchang Biotechnology Co., Ltd. (certificate number 20180003011079, initial body weight of 18-20 grams), and were randomly grouped according to Table 4, with 8 mice in each group. […] When modeling, each mouse was intraperitoneally injected with 200 μL of PBS solution containing 2 μg of anti-mouse CD41 antibodies (BD, Cat #: 553487, Lot #: 7026765).
Eight hours and twenty-four hours after modeling, the whole blood was collected and placed in a centrifuge tube coated with 10% citrate-phosphate-dextrose-adenine (CPDA), and the level of platelets (PLT) in the whole blood was measured by an XT-2000i (SYSMEX) automatic blood analyzer (Shanghai Laboratory Animal Research Centre Sino-British SIPPR/B & K Lab Animal Ltd).
The average level of platelets in peripheral blood was analyzed with Graphpad statistical software by one way ANOVA followed by Fisher LSD multiple comparison test, and the p value was calculated, wherein *p<0.05 indicated a statistically significant difference compared with the vehicle control group, **p<0.01 indicated a statistically extremely significant difference compared with the vehicle control group, and ##p<0.01 indicated a statistically extremely significant difference compared with the normal group. […]

C[C@H]1CN(C2COC2)C[C@H](C)N1c1ccc(Nc2cc(-c3ccnc(-n4ccn5c6c(cc5c4=O)CC(C)(C)C6)c3CO)cn(C)c2=O)nc1 [Compound 1, 2-(5-((5-((2S,6S)-2,6-dimethyl-4-(oxetan-3-yl)piperazin-1-yl)pyridin-2-yl)amino)-3′-(hydroxymethyl)-1-methyl-6-oxo-1,6-dihydro-[3,4′-bipyridin]-2′-yl)-7,7-dimethyl-7,8-dihydro-2H-cyclopenta[4,5]pyrrolo[1,2-a]pyrazin-1(6H)-one]
IC50 [1]: 1 nM
minimum effective dose [2]: 0.04 mg/kg
